In one data set the target is T1, hM1 (Homo sapiens, UniProt P11229).
T1 construct: host or cells: CHO-K1, stably transfected
T1 sequence (P11229 1-460): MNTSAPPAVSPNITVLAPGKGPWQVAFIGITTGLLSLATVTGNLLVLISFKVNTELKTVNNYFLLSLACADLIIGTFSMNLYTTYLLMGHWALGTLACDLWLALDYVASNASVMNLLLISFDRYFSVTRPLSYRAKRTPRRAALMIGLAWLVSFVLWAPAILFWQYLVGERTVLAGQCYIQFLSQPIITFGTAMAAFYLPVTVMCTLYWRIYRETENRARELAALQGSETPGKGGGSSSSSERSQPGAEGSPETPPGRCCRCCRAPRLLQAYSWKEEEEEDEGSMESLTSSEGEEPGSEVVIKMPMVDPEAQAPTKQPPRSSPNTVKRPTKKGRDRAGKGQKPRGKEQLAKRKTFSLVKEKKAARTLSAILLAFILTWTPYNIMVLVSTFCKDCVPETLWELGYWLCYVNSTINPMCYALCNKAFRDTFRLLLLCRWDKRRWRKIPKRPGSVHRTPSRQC
Description: Competitive [3H]NMS radioligand binding, CHO-hM1 cell membranes. As to conditions: for Ki: inhibition of [3H]NMS binding, CHO-hM1 membranes, read-out: Affinity: Ki ± SD, hM1; for Displacement ± SD of [3H]NMS binding, hM1: single ligand concentration corresponding to a Ki of 1 µM (Cheng-Prusoff). How it is done:
(§1) We first assessed the carbamates’ affinities for human muscarinic acetylcholine receptors subtypes hM1–5 by means of a competitive radioligand binding assay displacing [N-methyl-^3H]scopolamine methyl chloride ([^3H]NMS) in cell membranes expressing the individual receptors.
(§2) Cell membranes bearing hM1-hM5 receptors were prepared as described previously. Briefly, stably transfected CHO-K1 cells were grown to at least 80% confluency in T175 flasks, washed with ice-cold DPBS, and scraped into a mixture of ice-cold of 2 mL 10 mM Tris-HCl, 1 mM EDTA-buffer, pH 7.4 and 200 µL protease inhibitor. A cell homogenate was prepared by passing the cell suspension through a G29 needle. The cell homogenates corresponding to two T175 flasks were combined and subsequently centrifuged (10 min, 1000 × g, 4 °C). Ultracentrifugation of the supernatant (1 h, 100,000 × g, 4 °C) yielded a membrane pellet, which was suspended in 250 µL 50 mM Tris-HCl buffer, pH 7.4 and stored at −80 °C.
(§3) Maximum binding was measured by using 5 µL DMSO, and nonspecific binding was measured by using 5 µL of 1 µM scopolamine in DMSO. […] The membrane-bound radioactivity was recovered by filtration through Whatman™ GF/B glass fibre filters pre-soaked in aqueous 0.1% PEI using an M-36 tygon tubed cell harvester (Brandel®, Gaithersburg, MD, USA). Membranes were washed 3 times with ice-cold washing buffer (50 mM Tris, pH 7.4) before being dried, transferred to 2 mL scintillation cocktail (UltimaGold™, high flashpoint LSC cocktail, PerkinElmer, Waltham, MA, USA) and counted in a β -counter (Hidex TDCR Liquid Scintillation Counter in CPM mode). IC50 values were calculated by a variable slope logistic regression using at least five distinct concentrations of test compounds, pipetted in triplicates.

Another data set concerns the target T2, hM2 (Homo sapiens, UniProt P08172).
T2 construct: host or cells: CHO-K1, stably transfected
T2 sequence (P08172 1-466): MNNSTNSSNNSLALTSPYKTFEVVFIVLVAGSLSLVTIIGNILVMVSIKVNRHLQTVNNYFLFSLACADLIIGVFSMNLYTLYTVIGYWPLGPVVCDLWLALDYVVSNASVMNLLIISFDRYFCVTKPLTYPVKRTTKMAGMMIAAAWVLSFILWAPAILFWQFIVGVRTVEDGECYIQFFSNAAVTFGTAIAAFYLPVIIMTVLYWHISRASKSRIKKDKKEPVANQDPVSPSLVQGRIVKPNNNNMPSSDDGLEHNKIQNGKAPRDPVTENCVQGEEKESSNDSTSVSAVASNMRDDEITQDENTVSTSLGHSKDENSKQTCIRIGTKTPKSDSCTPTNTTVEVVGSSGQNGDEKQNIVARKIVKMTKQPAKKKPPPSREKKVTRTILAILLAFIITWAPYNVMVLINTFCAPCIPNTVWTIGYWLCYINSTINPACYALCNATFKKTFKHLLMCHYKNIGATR
Description: Competitive [3H]NMS radioligand binding, CHO-hM2 cell membranes. As to conditions: for x-Fold selectivity for hM1 vs. hM2: ratio of Ki values hM2/hM1; for Ki: read-out: Affinity: Ki ± SD, hM2; for Displacement ± SD of [3H]NMS binding, hM2: single ligand concentration corresponding to a Ki of 1 µM (Cheng-Prusoff). How it is done: as §1, §2, §3

Another data set concerns the target T3, hM3 (Homo sapiens, UniProt P20309).
T3 construct: host or cells: CHO-K1, stably transfected
Description: Competitive [3H]NMS radioligand binding, CHO-hM3 cell membranes. Particulars: for x-Fold selectivity for hM1 vs. hM3: ratio of Ki values hM3/hM1; for Ki: read-out: Affinity: Ki ± SD, hM3; for Displacement ± SD of [3H]NMS binding, hM3: single ligand concentration corresponding to a Ki of 1 µM (Cheng-Prusoff). Here is the method:
as §1, §2, §3

A further data set has as its target T4, hM4 (Homo sapiens, UniProt P08173).
T4 construct: host or cells: CHO-K1, stably transfected
T4 sequence (P08173 1-479): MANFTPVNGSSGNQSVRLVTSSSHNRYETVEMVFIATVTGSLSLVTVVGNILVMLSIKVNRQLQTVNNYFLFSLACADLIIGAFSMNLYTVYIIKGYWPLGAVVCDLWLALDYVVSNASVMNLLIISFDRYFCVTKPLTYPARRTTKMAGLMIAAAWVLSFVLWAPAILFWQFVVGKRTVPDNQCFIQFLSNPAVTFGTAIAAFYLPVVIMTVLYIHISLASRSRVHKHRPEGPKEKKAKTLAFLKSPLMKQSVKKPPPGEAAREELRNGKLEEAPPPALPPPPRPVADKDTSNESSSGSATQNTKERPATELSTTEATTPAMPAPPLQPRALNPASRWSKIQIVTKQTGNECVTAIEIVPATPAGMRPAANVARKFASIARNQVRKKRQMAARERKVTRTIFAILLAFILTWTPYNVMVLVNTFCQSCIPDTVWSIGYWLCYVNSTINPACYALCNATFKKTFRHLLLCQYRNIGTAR
Description: Competitive [3H]NMS radioligand binding, CHO-hM4 cell membranes. Particulars: for Ki: inhibition of [3H]NMS binding, CHO-hM4 membranes, read-out: Affinity: Ki ± SD, hM4; for x-Fold selectivity for hM1 vs. hM4: ratio of Ki values hM4/hM1; for Displacement ± SD of [3H]NMS binding, hM4: single ligand concentration corresponding to a Ki of 1 µM (Cheng-Prusoff). Here is the method: as §1, §2, §3

In another data set the target is T5, hM5 (Homo sapiens, UniProt P08912).
T5 construct: host or cells: CHO-K1, stably transfected
T5 sequence (P08912 1-532): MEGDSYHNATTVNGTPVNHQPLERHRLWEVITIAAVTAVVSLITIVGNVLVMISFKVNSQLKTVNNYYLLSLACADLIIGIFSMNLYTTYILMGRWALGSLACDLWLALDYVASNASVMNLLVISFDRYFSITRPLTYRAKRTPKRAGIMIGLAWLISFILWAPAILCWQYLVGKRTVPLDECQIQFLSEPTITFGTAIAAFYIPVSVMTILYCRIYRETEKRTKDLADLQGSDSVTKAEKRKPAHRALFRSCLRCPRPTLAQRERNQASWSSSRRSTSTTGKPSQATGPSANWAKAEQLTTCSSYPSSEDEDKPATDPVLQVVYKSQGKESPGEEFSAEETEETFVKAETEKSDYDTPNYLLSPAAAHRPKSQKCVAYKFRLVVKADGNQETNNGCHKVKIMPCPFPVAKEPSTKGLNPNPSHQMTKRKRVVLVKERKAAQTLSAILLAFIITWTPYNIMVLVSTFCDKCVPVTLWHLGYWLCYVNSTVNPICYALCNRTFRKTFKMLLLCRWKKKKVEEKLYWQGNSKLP
Description: Competitive [3H]NMS radioligand binding, CHO-hM5 cell membranes. Particulars: for Ki: inhibition of [3H]NMS binding, CHO-hM5 membranes, read-out: Affinity: Ki ± SD, hM5; for x-Fold selectivity for hM1 vs. hM5: ratio of Ki values hM5/hM1; for Displacement ± SD of [3H]NMS binding, hM5: single ligand concentration corresponding to a Ki of 1 µM (Cheng-Prusoff). How it is done:
as §1, §2, §3

A short description of data set [1]: High throughput HPLC-logD (lipophilicity). As to conditions: pH 7.4.
Description: Briefly, a mixture of toluene (≥98%, Sigma-Aldrich, St. Louis, MO, USA) and triphenylene (≥99.9%, Carl Roth, Karlsruhe, Germany) was used as internal standard. Each sample was dissolved in the internal standard mixture. Using gradient elution, the injection volume was set to 7 µL, the flow rate was 1.5 mL/min, and the mobile phase consisted of a mixture of methanol and 0.01 M sodium phosphate buffer pH 7.4. The HPLC-logD values were derived from the measured retention times following the previously published equation [27, 30].

SMILES strings stand for the structures. Several values for one entry are separate records, joined by “and”; a condition that tells them apart may be missing. Equal values may be shown once.

Usually Ki stands for the dissociation constant of the complex between target and ligand, obtained from inhibition or displacement. The term chromatographic logD denotes a lipophilicity value derived from retention on a column. Low readings indicate a more hydrophilic compound, high ones a more lipophilic compound.

T3 sequence (P20309 whole entry): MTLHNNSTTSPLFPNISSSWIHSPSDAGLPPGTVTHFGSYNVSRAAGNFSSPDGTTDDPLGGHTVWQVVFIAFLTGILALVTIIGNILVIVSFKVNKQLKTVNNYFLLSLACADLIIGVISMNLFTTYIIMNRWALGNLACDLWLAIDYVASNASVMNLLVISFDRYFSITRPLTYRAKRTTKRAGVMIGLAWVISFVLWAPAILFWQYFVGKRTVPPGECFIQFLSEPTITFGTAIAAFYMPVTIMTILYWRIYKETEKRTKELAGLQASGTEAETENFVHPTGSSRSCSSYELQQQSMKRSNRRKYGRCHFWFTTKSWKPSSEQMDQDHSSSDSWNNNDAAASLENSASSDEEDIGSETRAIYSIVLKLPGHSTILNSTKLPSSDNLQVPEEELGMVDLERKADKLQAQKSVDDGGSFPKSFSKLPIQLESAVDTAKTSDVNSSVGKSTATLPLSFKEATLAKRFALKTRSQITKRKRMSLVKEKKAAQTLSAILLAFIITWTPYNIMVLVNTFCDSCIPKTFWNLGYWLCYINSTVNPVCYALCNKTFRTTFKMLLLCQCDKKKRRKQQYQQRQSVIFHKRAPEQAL

Turning to `CN1CC2(CCN(C(=O)OC(c3ccc(F)cc3)c3ccc(F)cc3)C2)C1` [Compound 5, Bis(4-fluorophenyl)methyl 2-methyl-2,6-diazaspiro[3.4]octane-6-carboxylate], the Ki at hM1 worked out at 24.9 ± 6.2 nM. On hM2, the “x-Fold selectivity for hM1 vs. hM2” value was above 40 fold and the inhibitory constant (Ki) was above 1000 nM. Further, on hM3, the “x-Fold selectivity for hM1 vs. hM3” value came out at 6.6 fold and the inhibitory constant (Ki) is 165 ± 37.5 nM. In addition, at hM4, the Ki was determined as 150 ± 52.9 nM and the “x-Fold selectivity for hM1 vs. hM4” value was determined as 6.0 fold. Also, on hM5, the inhibition constant (Ki) stood at 231 ± 25.7 nM; the “x-Fold selectivity for hM1 vs. hM5” value was 9 fold and 9.3 fold. The same molecule registered a chromatographic logD in data set [1] of 2.69 ± 0.01.

For the molecule `CN1CCC(NC(=O)OC(c2ccc(F)cc2)c2ccc(F)cc2)CC1` [Compound 6, Bis(4-fluorophenyl)methyl (1-methylpiperidin-4-yl)carbamate], at hM1, the “Displacement ± SD of [3H]NMS binding, hM1” value (“Displacement ± SD … hM1” below) worked out at 52 ± 8%. For the same molecule, the “Displacement ± SD of [3H]NMS binding, hM2” value (shortened to “Displacement ± SD … hM2”) on hM2 is listed as 10 ± 7%. The “Displacement ± SD of [3H]NMS binding, hM3” value (“Displacement ± SD … hM3” for short) on hM3 was determined as 29 ± 5%. Also, the “Displacement ± SD of [3H]NMS binding, hM4” value (“Displacement ± SD … hM4” below) at hM4 was found to be 48 ± 9%. In addition, the “Displacement ± SD of [3H]NMS binding, hM5” value (shortened to “Displacement ± SD … hM5”) on hM5 is 54 ± 8%. For the same molecule, the chromatographic logD in data set [1] stood at 3.25 ± 0.04.

Consider `CN1CCC(CNC(=O)OC(c2ccc(F)cc2)c2ccc(F)cc2)C1` (centres unmarked) [Compound 10, Bis(4-fluorophenyl)methyl ((1-methylpyrrolidin-3-yl)methyl)carbamate], for which the Ki on hM1 turned out to be 239 ± 67.9 nM. Further, on hM2, the “x-Fold selectivity for hM1 vs. hM2” value is listed as above 4 fold and the inhibition constant Ki is above 1000 nM. On hM3, the “x-Fold selectivity for hM1 vs. hM3” value amounted to 1.2 fold and the inhibition constant Ki came out at 277 ± 45.4 nM. In addition, at hM4, the inhibition constant (Ki) was 238 ± 104 nM and the “x-Fold selectivity for hM1 vs. hM4” value came to 1.0 fold. At hM5, the Ki was 295 ± 32.8 nM and the “x-Fold selectivity for hM1 vs. hM5” value is 1.2 fold. This molecule yielded a chromatographic logD in data set [1] of 2.69 ± 0.01.

For `CN1CCCC1CCNC(=O)OC(c1ccc(F)cc1)c1ccc(F)cc1` (centres unmarked) [Compound 11, Bis(4-fluorophenyl)methyl (2-(1-methylpyrrolidin-2-yl)ethyl)carbamate], the “Displacement ± SD … hM1” value on hM1 is 53 ± 8%. For the same molecule, the “Displacement ± SD … hM2” value at hM2 is recorded as 37 ± 15%. The “Displacement ± SD … hM3” value on hM3 is given as 62 ± 3%. At hM4, the “Displacement ± SD … hM4” value is reported as 54 ± 13%. For the same molecule, the “Displacement ± SD … hM5” value on hM5 is recorded as 59 ± 17%. Besides, the chromatographic logD in data set [1] was found to be 2.5 ± 0.3.

Regarding `CN1CCOCC1CNC(=O)OC(c1ccc(F)cc1)c1ccc(F)cc1` (centres unmarked) [Compound 12, Bis(4-fluorophenyl)methyl ((4-methylmorpholin-3-yl)methyl)carbamate], at hM1, the “Displacement ± SD … hM1” value was 39 ± 5%. Further, the “Displacement ± SD … hM2” value on hM2 stood at 8 ± 5%. The “Displacement ± SD … hM3” value at hM3 turned out to be 25 ± 9%. On hM4, the “Displacement ± SD … hM4” value amounted to 20 ± 8%. For the same molecule, the “Displacement ± SD … hM5” value on hM5 was 43 ± 11%. The molecule further registered a chromatographic logD in data set [1] of 2.82 ± 0.04.

The values are drawn from publication PMC8879200, “Design, Synthesis, and Biological Evaluation of 4,4’-Difluorobenzhydrol Carbamates as Selective M1 Antagonists” (Pharmaceuticals, 2022).
